24 molecules from US20250276964A1 (Novartis AG, priority 2021, published 2025) can be followed below.

For the experiment, the target named is T1, WIZ (Homo sapiens, UniProt O95785+Q96SW2).
T1 construct: expressed in transfected cells
Put plainly: Quantification of WIZ protein levels in HiBit tag fusion protein assay (WIZ HiBit assay in 293T cells). The class given is cell-based. As to conditions: for Dmax at 25 µM / remaining activity at 25 µM: HEK-293T; for Dmax at 25 µM: 100 minus Amax at 25 uM, read-out: % degradation of WIZ (100-Amax); for remaining activity at 25 µM: DMSO-normalized, curve-fitted percentage of WIZ-HiBit remaining at 25 uM, read-out: WIZ Amax; for DC50: WIZ HiBit assay in 293T cells, 10-point, 5-fold dilution, highest concentration 25 μM, about 18 hours, read-out: WIZ AC50. Put shortly:
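293T cells stably carrying single-copy HiBit-WIZ (HSVTK promoter) treated ~18 h at 37 °C with 10-point, 5-fold dilutions, top 25 μM. Lytic HiBit luminescence read; Amax is DMSO-normalised, curve-fitted % WIZ-HiBit remaining at 25 uM.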

T1 sequence (O95785 whole entry): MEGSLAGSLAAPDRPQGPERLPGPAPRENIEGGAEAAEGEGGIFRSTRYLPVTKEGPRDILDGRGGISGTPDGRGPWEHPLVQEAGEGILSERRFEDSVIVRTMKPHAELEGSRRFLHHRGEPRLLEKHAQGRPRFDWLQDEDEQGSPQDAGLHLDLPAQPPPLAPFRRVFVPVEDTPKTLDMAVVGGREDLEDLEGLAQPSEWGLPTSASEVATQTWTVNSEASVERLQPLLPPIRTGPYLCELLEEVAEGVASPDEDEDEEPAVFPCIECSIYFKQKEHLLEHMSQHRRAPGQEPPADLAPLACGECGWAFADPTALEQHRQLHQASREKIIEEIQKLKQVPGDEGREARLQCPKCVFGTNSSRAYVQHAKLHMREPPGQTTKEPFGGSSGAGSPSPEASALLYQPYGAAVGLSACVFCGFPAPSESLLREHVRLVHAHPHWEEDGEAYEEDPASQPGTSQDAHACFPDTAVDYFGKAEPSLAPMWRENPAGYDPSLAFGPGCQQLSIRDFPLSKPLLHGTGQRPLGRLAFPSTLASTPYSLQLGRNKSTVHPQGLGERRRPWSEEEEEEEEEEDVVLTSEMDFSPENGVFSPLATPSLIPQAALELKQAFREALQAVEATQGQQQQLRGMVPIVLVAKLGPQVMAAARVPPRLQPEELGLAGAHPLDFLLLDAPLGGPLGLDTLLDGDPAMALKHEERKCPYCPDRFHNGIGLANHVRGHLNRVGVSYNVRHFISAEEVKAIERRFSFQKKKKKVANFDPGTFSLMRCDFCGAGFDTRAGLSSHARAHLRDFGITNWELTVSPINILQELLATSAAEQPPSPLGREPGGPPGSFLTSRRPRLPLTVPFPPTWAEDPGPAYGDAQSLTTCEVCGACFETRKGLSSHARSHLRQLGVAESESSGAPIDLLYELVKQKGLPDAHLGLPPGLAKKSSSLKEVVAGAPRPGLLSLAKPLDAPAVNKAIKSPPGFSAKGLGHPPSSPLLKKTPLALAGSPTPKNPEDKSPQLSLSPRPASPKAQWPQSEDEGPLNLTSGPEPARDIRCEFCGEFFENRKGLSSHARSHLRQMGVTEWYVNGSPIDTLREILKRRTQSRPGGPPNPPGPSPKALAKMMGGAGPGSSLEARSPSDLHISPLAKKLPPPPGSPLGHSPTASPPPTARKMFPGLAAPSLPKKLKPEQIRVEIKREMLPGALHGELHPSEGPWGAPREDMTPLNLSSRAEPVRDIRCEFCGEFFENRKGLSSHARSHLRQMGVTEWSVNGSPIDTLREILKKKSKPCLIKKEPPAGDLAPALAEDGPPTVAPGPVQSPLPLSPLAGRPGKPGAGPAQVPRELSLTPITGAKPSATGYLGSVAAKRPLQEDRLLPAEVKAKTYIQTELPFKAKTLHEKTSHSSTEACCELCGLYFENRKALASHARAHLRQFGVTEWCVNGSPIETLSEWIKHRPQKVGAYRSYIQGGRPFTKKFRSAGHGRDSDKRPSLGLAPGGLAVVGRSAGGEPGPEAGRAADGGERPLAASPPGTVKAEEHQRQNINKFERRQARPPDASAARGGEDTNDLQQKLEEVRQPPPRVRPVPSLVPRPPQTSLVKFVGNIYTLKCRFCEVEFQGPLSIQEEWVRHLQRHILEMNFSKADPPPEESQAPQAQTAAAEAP
T1 sequence (Q96SW2 whole entry): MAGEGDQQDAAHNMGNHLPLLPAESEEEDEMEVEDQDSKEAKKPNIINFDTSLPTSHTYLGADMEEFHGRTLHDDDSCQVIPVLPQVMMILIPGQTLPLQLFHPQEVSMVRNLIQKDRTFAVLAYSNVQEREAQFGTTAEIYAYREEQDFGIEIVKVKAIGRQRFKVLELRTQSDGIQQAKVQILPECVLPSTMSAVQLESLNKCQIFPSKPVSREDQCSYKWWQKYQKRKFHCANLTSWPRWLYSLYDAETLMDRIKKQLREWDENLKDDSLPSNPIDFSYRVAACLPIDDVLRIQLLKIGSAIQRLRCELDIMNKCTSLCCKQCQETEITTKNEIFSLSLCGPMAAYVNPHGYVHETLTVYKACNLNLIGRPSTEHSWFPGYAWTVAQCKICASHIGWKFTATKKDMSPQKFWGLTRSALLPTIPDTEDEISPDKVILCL
T1 sequence (Q16531 whole entry partner): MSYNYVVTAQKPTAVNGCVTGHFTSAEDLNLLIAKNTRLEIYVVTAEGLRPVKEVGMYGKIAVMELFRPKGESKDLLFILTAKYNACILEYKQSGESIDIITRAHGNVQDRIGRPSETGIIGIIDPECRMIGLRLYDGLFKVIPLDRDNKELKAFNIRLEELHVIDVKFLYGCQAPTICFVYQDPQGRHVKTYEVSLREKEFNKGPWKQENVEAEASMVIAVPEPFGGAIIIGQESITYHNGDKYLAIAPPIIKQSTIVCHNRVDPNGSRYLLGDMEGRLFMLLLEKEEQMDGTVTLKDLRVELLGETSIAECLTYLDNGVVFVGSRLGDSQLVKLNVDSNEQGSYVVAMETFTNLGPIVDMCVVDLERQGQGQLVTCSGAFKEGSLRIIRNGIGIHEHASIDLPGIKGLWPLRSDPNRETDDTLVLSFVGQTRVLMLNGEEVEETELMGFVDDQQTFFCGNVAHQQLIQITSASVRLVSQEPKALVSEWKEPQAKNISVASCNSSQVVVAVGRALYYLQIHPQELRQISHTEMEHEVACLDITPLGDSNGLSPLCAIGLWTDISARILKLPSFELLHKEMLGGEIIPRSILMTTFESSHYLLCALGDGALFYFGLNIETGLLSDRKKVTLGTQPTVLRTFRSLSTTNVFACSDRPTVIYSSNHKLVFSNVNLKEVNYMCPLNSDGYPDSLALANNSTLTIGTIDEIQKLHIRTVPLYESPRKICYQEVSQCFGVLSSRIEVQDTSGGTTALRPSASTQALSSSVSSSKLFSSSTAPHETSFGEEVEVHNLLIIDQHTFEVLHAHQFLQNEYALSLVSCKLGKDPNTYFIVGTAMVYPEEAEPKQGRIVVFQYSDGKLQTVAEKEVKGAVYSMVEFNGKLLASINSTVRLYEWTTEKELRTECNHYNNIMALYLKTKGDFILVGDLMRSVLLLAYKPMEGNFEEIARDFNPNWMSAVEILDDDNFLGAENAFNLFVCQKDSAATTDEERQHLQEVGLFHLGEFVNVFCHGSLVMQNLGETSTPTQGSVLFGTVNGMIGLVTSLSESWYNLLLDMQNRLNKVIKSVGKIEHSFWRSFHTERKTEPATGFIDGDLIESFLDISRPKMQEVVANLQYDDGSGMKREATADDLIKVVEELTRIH

As for `CN1CCCN(Cc2ccc3onc(N4CCC(=O)NC4=O)c3c2)CC1` [Example 63, 1-(5-((4-methyl-1,4-diazepan-1-yl)methyl)benzo[d]isoxazol-3-yl)dihydropyrimidine-2,4(1H,3H)-dione], the Dmax at 25 µM was determined as 84%, the remaining activity at 25 µM is 16% and the DC50 turned out to be 0.028 µM.
For `CC(=O)N1CCN(Cc2ccc3onc(N4CCC(=O)NC4=O)c3c2)[C@H](C)C1` [Example 64, (R)-1-(5-((4-acetyl-2-methylpiperazin-1-yl)methyl)benzo[d]isoxazol-3-yl)dihydropyrimidine-2,4(1H,3H)-dione] the same measures were 75%, 25% and 0.229 µM.
In the case of `CCN1CCN(Cc2ccc3onc(N4CCC(=O)NC4=O)c3c2)[C@H](C)C1` [Example 66, (R)-1-(5-((4-ethyl-2-methylpiperazin-1-yl)methyl)benzo[d]isoxazol-3-yl)dihydropyrimidine-2,4(1H,3H)-dione], the Dmax at 25 µM is 86%, the remaining activity at 25 µM was 14% and the DC50 was determined as 0.045 µM.
The like results for `C[C@@H]1CN(CC2CCOCC2)CCN1Cc1ccc2onc(N3CCC(=O)NC3=O)c2c1` [Example 67, (R)-1-(5-((2-methyl-4-((tetrahydro-2H-pyran-4-yl)methyl)piperazin-1-yl)methyl)benzo[d]isoxazol-3-yl)dihydropyrimidine-2,4(1H,3H)-dione] were, in that order, 89%, 11% and 0.009 µM.
For `C[C@@H]1CN(CC2COC2)CCN1Cc1ccc2onc(N3CCC(=O)NC3=O)c2c1` [Example 68, (R)-1-(5-((2-methyl-4-(oxetan-3-ylmethyl)piperazin-1-yl)methyl)benzo[d]isoxazol-3-yl)dihydropyrimidine-2,4(1H,3H)-dione] the same measures were 83%, 17% and 0.04 µM.
The like results for `CC(C)N1CCN(Cc2ccc3onc(N4CCC(=O)NC4=O)c3c2)[C@H](C)C1` [Example 69, (R)-1-(5-((4-isopropyl-2-methylpiperazin-1-yl)methyl)benzo[d]isoxazol-3-yl)dihydropyrimidine-2,4(1H,3H)-dione] were, in that order, 83%, 17% and 0.045 µM.
Regarding `C[C@@H]1CN(CC(=O)N2CCCCC2)CCN1Cc1ccc2onc(N3CCC(=O)NC3=O)c2c1` [Example 70, (R)-1-(5-((2-methyl-4-(2-oxo-2-(piperidin-1-yl)ethyl)piperazin-1-yl)methyl)benzo[d]isoxazol-3-yl)dihydropyrimidine-2,4(1H,3H)-dione], the Dmax at 25 µM was determined as 78%, the remaining activity at 25 µM turned out to be 22% and the DC50 came to 0.3 µM.
`C[C@@H]1CN(S(C)(=O)=O)CCN1Cc1ccc2onc(N3CCC(=O)NC3=O)c2c1` [Example 71, (R)-1-(5-((2-methyl-4-(methylsulfonyl)piperazin-1-yl)methyl)benzo[d]isoxazol-3-yl)dihydropyrimidine-2,4(1H,3H)-dione]: the Dmax at 25 µM turned out to be 82%, the remaining activity at 25 µM came to 18% and the DC50 is 0.034 µM.
The like results for `CCS(=O)(=O)N1CCN(Cc2ccc3onc(N4CCC(=O)NC4=O)c3c2)[C@H](C)C1` [Example 72, (R)-1-(5-((4-(ethylsulfonyl)-2-methylpiperazin-1-yl)methyl)benzo[d]isoxazol-3-yl)dihydropyrimidine-2,4(1H,3H)-dione] were, in that order, 81%, 19% and 0.098 µM.
For `CC(C)S(=O)(=O)N1CCN(Cc2ccc3onc(N4CCC(=O)NC4=O)c3c2)[C@H](C)C1` [Example 73, (R)-1-(5-((4-(isopropylsulfonyl)-2-methylpiperazin-1-yl)methyl)benzo[d]isoxazol-3-yl)dihydropyrimidine-2,4(1H,3H)-dione] the same measures were 83%, 17% and 0.11 µM.
The like results for `C[C@@H]1CN(S(=O)(=O)N2CCCC2)CCN1Cc1ccc2onc(N3CCC(=O)NC3=O)c2c1` [Example 74, (R)-1-(5-((2-methyl-4-(pyrrolidin-1-ylsulfonyl)piperazin-1-yl)methyl)benzo[d]isoxazol-3-yl)dihydropyrimidine-2,4(1H,3H)-dione] were, in that order, 76%, 24% and 0.437 µM.
For `C[C@@H]1CN(C(=O)N2CCCC2)CCN1Cc1ccc2onc(N3CCC(=O)NC3=O)c2c1` [Example 75, (R)-1-(5-((2-methyl-4-(pyrrolidine-1-carbonyl)piperazin-1-yl)methyl)benzo[d]isoxazol-3-yl)dihydropyrimidine-2,4(1H,3H)-dione], the Dmax at 25 µM came to 78%, the remaining activity at 25 µM was 22% and the DC50 was 0.132 µM.
`C[C@@H]1CN(C(=O)NC2CCCC2)CCN1Cc1ccc2onc(N3CCC(=O)NC3=O)c2c1` [Example 76, (R)—N-cyclopentyl-4-((3-(2,4-dioxotetrahydropyrimidin-1(2H)-yl)benzo[d]isoxazol-5-yl)methyl)-3-methylpiperazine-1-carboxamide]: the Dmax at 25 µM was 78%, the remaining activity at 25 µM came to 22% and the DC50 came to 0.115 µM.
The like results for `C[C@@H]1CN(C2CCC2)CCN1Cc1ccc2onc(N3CCC(=O)NC3=O)c2c1` [Example 77, (R)-1-(5-((4-cyclobutyl-2-methylpiperazin-1-yl)methyl)benzo[d]isoxazol-3-yl)dihydropyrimidine-2,4(1H,3H)-dione] were, in that order, 82%, 18% and 0.022 µM.
The like results for `C[C@@H]1CN(C2CCOCC2)CCN1Cc1ccc2onc(N3CCC(=O)NC3=O)c2c1` [Example 78, (R)-1-(5-((2-methyl-4-(tetrahydro-2H-pyran-4-yl)piperazin-1-yl)methyl)benzo[d]isoxazol-3-yl)dihydropyrimidine-2,4(1H,3H)-dione] were, in that order, 80%, 20% and 0.037 µM.
The like results for `CC(C)N1CCN(Cc2ccc3onc(N4CCC(=O)NC4=O)c3c2)CC1` [Example 79, 1-(5-((4-isopropylpiperazin-1-yl)methyl)benzo[d]isoxazol-3-yl)dihydropyrimidine-2,4(1H,3H)-dione] were, in that order, 92%, 8% and 0.016 µM.
For the molecule `O=C1CCN(c2noc3ccc(CN4CCN(C5CCC5)CC4)cc23)C(=O)N1` [Example 80, 1-(5-((4-cyclobutylpiperazin-1-yl)methyl)benzo[d]isoxazol-3-yl)dihydropyrimidine-2,4(1H,3H)-dione], the Dmax at 25 µM came to 93%, the remaining activity at 25 µM is 7% and the DC50 came out at 0.014 µM.
For `O=C1CCN(c2noc3ccc(CN4CCN(C5CCOCC5)CC4)cc23)C(=O)N1` [Example 81, 1-(5-((4-(tetrahydro-2H-pyran-4-yl)piperazin-1-yl)methyl)benzo[d]isoxazol-3-yl)dihydropyrimidine-2,4(1H,3H)-dione] the same measures were 90%, 10% and 0.026 µM.
Consider `C[C@H]1CN(Cc2ccc3onc(N4CCC(=O)NC4=O)c3c2)CCN1C1COC1` [Example 82, (S)-1-(5-((3-methyl-4-(oxetan-3-yl)piperazin-1-yl)methyl)benzo[d]isoxazol-3-yl)dihydropyrimidine-2,4(1H,3H)-dione], for which the Dmax at 25 µM was 95%, the remaining activity at 25 µM worked out at 5% and the DC50 is 0.077 µM.
For `CS(=O)(=O)N1CCN(Cc2ccc3onc(N4CCC(=O)NC4=O)c3c2)CC1` [Example 83, 1-(5-((4-(methylsulfonyl)piperazin-1-yl)methyl)benzo[d]isoxazol-3-yl)dihydropyrimidine-2,4(1H,3H)-dione] the same measures were 83%, 17% and 0.093 µM.
For `CC(C)S(=O)(=O)N1CCN(Cc2ccc3onc(N4CCC(=O)NC4=O)c3c2)CC1` [Example 84, 1-(5-((4-(isopropylsulfonyl)piperazin-1-yl)methyl)benzo[d]isoxazol-3-yl)dihydropyrimidine-2,4(1H,3H)-dione] the same measures were 82%, 18% and 0.145 µM.
As for `CC(C)C(=O)N1CCN(Cc2ccc3onc(N4CCC(=O)NC4=O)c3c2)CC1` [Example 85, 1-(5-((4-isobutyrylpiperazin-1-yl)methyl)benzo[d]isoxazol-3-yl)dihydropyrimidine-2,4(1H,3H)-dione], the Dmax at 25 µM was determined as 82%, the remaining activity at 25 µM amounted to 18% and the DC50 was 0.218 µM.
The like results for `C[C@H]1CN(Cc2ccc3onc(N4CCC(=O)NC4=O)c3c2)CCN1CC1COC1` [Example 86, (S)-1-(5-((3-methyl-4-(oxetan-3-ylmethyl)piperazin-1-yl)methyl)benzo[d]isoxazol-3-yl)dihydropyrimidine-2,4(1H,3H)-dione] were, in that order, 86%, 14% and 0.011 µM.
The like results for `CC[C@@H]1CN(C)CCN1Cc1ccc2onc(N3CCC(=O)NC3=O)c2c1` [Example 87, (R)-1-(5-((2-ethyl-4-methylpiperazin-1-yl)methyl)benzo[d]isoxazol-3-yl)dihydropyrimidine-2,4(1H,3H)-dione] were, in that order, 83%, 17% and 0.006 µM.
